{
  "source": "the supplement of paper PMC10307832",
  "experiment_in_all_cases": "relative viability (nuclei count vs DMSO), 5 days (fraction); higher = more cells survive",
  "key": {"[1]": {"system": "NCI-H1792", "method_in_brief": "(§1)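 Relative viability divides the nuclei count in treated wells by that in vehicle wells. Lung cancer cell lines were seeded in 1536-well plates, dosed by pin tool the next day, and fixed and stained after 5 days in one step with final 0.05% Triton X-100, 1% formaldehyde and 1 ug/ml Hoechst. Dosing was a single drug or a fixed anchor-drug dose plus five library-drug doses (not always all listed) in √10 steps, and values are medians of duplicate plates imaged at 4×.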"}, "[2]": {"system": "NCI-H1755", "method_in_brief": "as §1"}, "[3]": {"system": "NCI-H441", "method_in_brief": "as §1"}, "[4]": {"system": "LCLC-97TM1", "method_in_brief": "as §1"}, "[5]": {"system": "NCI-H2405", "method_in_brief": "as §1"}, "[6]": {"system": "LK-2", "method_in_brief": "as §1"}, "[7]": {"system": "HCC-78", "method_in_brief": "as §1"}, "[8]": {"system": "NCI-H520", "method_in_brief": "as §1"}, "[9]": {"system": "NCI-H1355", "method_in_brief": "as §1"}, "[10]": {"system": "NCI-H2228", "method_in_brief": "as §1"}, "[11]": {"system": "HCC-827", "method_in_brief": "as §1"}, "[12]": {"system": "NCI-H2009", "method_in_brief": "as §1"}, "[13]": {"system": "ChaGo-K-1", "method_in_brief": "as §1"}, "[14]": {"system": "NCI-H647", "method_in_brief": "as §1"}, "[15]": {"system": "NCI-H2085", "method_in_brief": "as §1"}, "[16]": {"system": "LOU-NH91", "method_in_brief": "as §1"}, "[17]": {"system": "PC-3 [JPC-3]", "method_in_brief": "as §1"}, "[18]": {"system": "NCI-H1395", "method_in_brief": "as §1"}, "[19]": {"system": "SK-MES-1", "method_in_brief": "as §1"}, "[20]": {"system": "NCI-H1993", "method_in_brief": "as §1"}},
  "data": [
    {"smiles": "Oc1nc(-c2ccc(C(F)(F)F)cc2)nc2c1CSCC2", "note": "[XAV939] + CC1(C)CCC(c2ccc(Cl)cc2)=C(CN2CCN(c3ccc(C(=O)NS(=O)(=O)c4ccc(N[C@H](CCN5CCOCC5)CSc5ccccc5)c(S(=O)(=O)C(F)(F)F)c4)cc3)CC2)C1 [Navitoclax] (partner 0.5 µM)", "values": [
      {"measurement": "relative viability", "setting": "[1]; first compound 0.08 µM", "result": 0.595},
      {"measurement": "relative viability", "setting": "[1]; first compound 0.253 µM", "result": 0.589},
      {"measurement": "relative viability", "setting": "[1]; first compound 0.8 µM", "result": 0.601},
      {"measurement": "relative viability", "setting": "[1]; first compound 2.53 µM", "result": 0.572},
      {"measurement": "relative viability", "setting": "[2]; first compound 0.08 µM", "result": 0.945},
      {"measurement": "relative viability", "setting": "[2]; first compound 0.253 µM", "result": 0.796},
      {"measurement": "relative viability", "setting": "[2]; first compound 0.8 µM", "result": 0.907},
      {"measurement": "relative viability", "setting": "[2]; first compound 2.53 µM", "result": 0.853},
      {"measurement": "relative viability", "setting": "[3]; first compound 0.08 µM", "result": 0.571},
      {"measurement": "relative viability", "setting": "[3]; first compound 0.253 µM", "result": 0.683},
      {"measurement": "relative viability", "setting": "[3]; first compound 0.8 µM", "result": 0.487},
      {"measurement": "relative viability", "setting": "[3]; first compound 2.53 µM", "result": 0.973},
      {"measurement": "relative viability", "setting": "[4]; first compound 0.08 µM", "result": 0.534},
      {"measurement": "relative viability", "setting": "[4]; first compound 0.253 µM", "result": 0.399},
      {"measurement": "relative viability", "setting": "[4]; first compound 0.8 µM", "result": 0.621},
      {"measurement": "relative viability", "setting": "[4]; first compound 2.53 µM", "result": 0.294},
      {"measurement": "relative viability", "setting": "[5]; first compound 0.08 µM", "result": 0.945},
      {"measurement": "relative viability", "setting": "[5]; first compound 0.253 µM", "result": 0.762},
      {"measurement": "relative viability", "setting": "[5]; first compound 0.8 µM", "result": 0.886},
      {"measurement": "relative viability", "setting": "[5]; first compound 2.53 µM", "result": 0.555},
      {"measurement": "relative viability", "setting": "[6]; first compound 0.08 µM", "result": 1.07},
      {"measurement": "relative viability", "setting": "[6]; first compound 0.253 µM", "result": 0.757},
      {"measurement": "relative viability", "setting": "[6]; first compound 0.8 µM", "result": 0.928},
      {"measurement": "relative viability", "setting": "[6]; first compound 2.53 µM", "result": 0.631},
      {"measurement": "relative viability", "setting": "[7]; first compound 0.08 µM", "result": 0.842},
      {"measurement": "relative viability", "setting": "[7]; first compound 0.253 µM", "result": 0.736},
      {"measurement": "relative viability", "setting": "[7]; first compound 0.8 µM", "result": 0.825},
      {"measurement": "relative viability", "setting": "[7]; first compound 2.53 µM", "result": 0.613},
      {"measurement": "relative viability", "setting": "[8]; first compound 0.08 µM", "result": 1.21},
      {"measurement": "relative viability", "setting": "[8]; first compound 0.253 µM", "result": 0.988},
      {"measurement": "relative viability", "setting": "[8]; first compound 0.8 µM", "result": 0.861},
      {"measurement": "relative viability", "setting": "[8]; first compound 2.53 µM", "result": 0.885},
      {"measurement": "relative viability", "setting": "[9]; first compound 0.08 µM", "result": 0.913},
      {"measurement": "relative viability", "setting": "[9]; first compound 0.253 µM", "result": 0.825},
      {"measurement": "relative viability", "setting": "[9]; first compound 0.8 µM", "result": 0.805},
      {"measurement": "relative viability", "setting": "[9]; first compound 2.53 µM", "result": 0.637},
      {"measurement": "relative viability", "setting": "[10]; first compound 0.08 µM", "result": 1.13},
      {"measurement": "relative viability", "setting": "[10]; first compound 0.253 µM", "result": 0.838},
      {"measurement": "relative viability", "setting": "[10]; first compound 0.8 µM", "result": 0.94},
      {"measurement": "relative viability", "setting": "[10]; first compound 2.53 µM", "result": 1.1},
      {"measurement": "relative viability", "setting": "[11]; first compound 0.08 µM", "result": 1.02},
      {"measurement": "relative viability", "setting": "[11]; first compound 0.253 µM", "result": 1.02},
      {"measurement": "relative viability", "setting": "[11]; first compound 0.8 µM", "result": 0.975},
      {"measurement": "relative viability", "setting": "[11]; first compound 2.53 µM", "result": 1.04},
      {"measurement": "relative viability", "setting": "[12]; first compound 0.08 µM", "result": 1.17},
      {"measurement": "relative viability", "setting": "[12]; first compound 0.253 µM", "result": 1.12},
      {"measurement": "relative viability", "setting": "[12]; first compound 0.8 µM", "result": 1.13},
      {"measurement": "relative viability", "setting": "[12]; first compound 2.53 µM", "result": 1.06},
      {"measurement": "relative viability", "setting": "[13]; first compound 0.08 µM", "result": 0.898},
      {"measurement": "relative viability", "setting": "[13]; first compound 0.253 µM", "result": 0.914},
      {"measurement": "relative viability", "setting": "[13]; first compound 0.8 µM", "result": 0.998},
      {"measurement": "relative viability", "setting": "[13]; first compound 2.53 µM", "result": 1.04},
      {"measurement": "relative viability", "setting": "[14]; first compound 0.08 µM", "result": 1.18},
      {"measurement": "relative viability", "setting": "[14]; first compound 0.253 µM", "result": 0.94},
      {"measurement": "relative viability", "setting": "[14]; first compound 0.8 µM", "result": 0.881},
      {"measurement": "relative viability", "setting": "[14]; first compound 2.53 µM", "result": 0.877},
      {"measurement": "relative viability", "setting": "[15]; first compound 0.08 µM", "result": 1.1},
      {"measurement": "relative viability", "setting": "[15]; first compound 0.253 µM", "result": 1.1},
      {"measurement": "relative viability", "setting": "[15]; first compound 0.8 µM", "result": 1.13},
      {"measurement": "relative viability", "setting": "[15]; first compound 2.53 µM", "result": 0.882},
      {"measurement": "relative viability", "setting": "[16]; first compound 0.08 µM", "result": 0.636},
      {"measurement": "relative viability", "setting": "[16]; first compound 0.253 µM", "result": 0.627},
      {"measurement": "relative viability", "setting": "[16]; first compound 0.8 µM", "result": 0.692},
      {"measurement": "relative viability", "setting": "[16]; first compound 2.53 µM", "result": 0.652},
      {"measurement": "relative viability", "setting": "[17]; first compound 0.08 µM", "result": 0.728},
      {"measurement": "relative viability", "setting": "[17]; first compound 0.253 µM", "result": 0.737},
      {"measurement": "relative viability", "setting": "[17]; first compound 0.8 µM", "result": 0.814},
      {"measurement": "relative viability", "setting": "[17]; first compound 2.53 µM", "result": 0.724},
      {"measurement": "relative viability", "setting": "[18]; first compound 0.08 µM", "result": 1.11},
      {"measurement": "relative viability", "setting": "[18]; first compound 0.253 µM", "result": 1.33},
      {"measurement": "relative viability", "setting": "[18]; first compound 0.8 µM", "result": 1.2},
      {"measurement": "relative viability", "setting": "[18]; first compound 2.53 µM", "result": 1.16},
      {"measurement": "relative viability", "setting": "[19]; first compound 0.08 µM", "result": 1.21},
      {"measurement": "relative viability", "setting": "[19]; first compound 0.253 µM", "result": 1.12},
      {"measurement": "relative viability", "setting": "[19]; first compound 0.8 µM", "result": 1.12},
      {"measurement": "relative viability", "setting": "[19]; first compound 2.53 µM", "result": 1.14},
      {"measurement": "relative viability", "setting": "[20]; first compound 0.8 µM", "result": 0.698},
      {"measurement": "relative viability", "setting": "[20]; first compound 2.53 µM", "result": 0.787}
    ]}
  ]
}
